US20260242338A1, “CRYSTALS OF N[…]” (KYOTO DRUG DISCOVERY & DEVELOPMENT CO., LTD., priority 2022, published 2026)
Where two headings read alike, the source gives them in different places.

Assay type: physicochemical
Method: X-ray powder diffraction data were acquired using PhotonMax high-flux 9 KW rotating cathode X-ray generator (SmartLab 9 KW, Rigaku). All diffractograms were acquired using copper radiation (CuKα, 45 kV/200 mA, λ=1.5418 Å) and using KB filter to reduce unneeded radiation. The measurement was carried out by placing the sample gently crushed in an agate mortar on a measurement stand and then scanning the sample under 2θscanning conditions with a scanning range of 3° to 40°, a scanning speed of 20°/min, and a step size of 0.02°.
X-ray powder diffraction data were acquired using a diffractometer (MiniFlex 600, Rigaku). All diffractograms were acquired using copper radiation (CuKα, 40 kV/15 mA, λ=1.5418 Å) and using KB filter to reduce unneeded radiation. Scanning was carried out in 2θ with a scanning range of 5° to 50°, a scanning speed of 5°/min, and a step size of 0.02°.
The water content was measured using a coulometric moisture meter (CA-100, Nitto Seiko Analytech), using about 0.5 g of the solid sample, Aquamicron GEX as the solvent, and 3 mg of Aquamicron SS as a titrant.
The water content was measured using a Karl Fischer moisture meter (AQUACOUNTER AQV-2100, HIRANUMA) equipped with an electrolytic bath stirrer for iodine generation and a constant current potentiometer, using about 0.2 g of the solid sample, Aquamicron GEX as the solvent, and 3 mg of Aquamicron SS-Z as a titrant.
The crystal of KUS121 dihydrate was subjected to a normal storage stability test (25° C./60% RH, 18 months) and a storage stability test under accelerated test condition (40° C./75% RH, 6 months). For comparison, the crystal of KUS121 anhydride was also subjected to storage stability tests under accelerated test condition (40° C./75% RH, 6 months) and under ambient temperature condition (30 months).

[1] = 40° C./75% RH (6 months), dihydrate

**Q.** What does the source list for `Cc1cc(F)ccc1-c1ccc(/N=N/c2cc(S(=O)(=O)[O-])c3ccccc3c2N)cn1.[Na+]` [Crystal of KUS121 anhydride, Sodium 4-amino-3-[6-(4-fluoro-2-methylphenyl)pyridin-3-ylazo]naphthalene-1-sulfonate]?
**A.** Content (40° C./75% RH (6 months)): 100.8%; Purity test (40° C./75% RH (6 months)): 99.5%; Water content (40° C./75% RH (6 months)): 3.0%; Water content (Ambient temperature (30 months)): 9.1%; Content (Initial): 98.2%; Purity test (Initial): 99.5%; Water content (Initial): 0.8%

**Q.** Which Content (25° C./60% RH (18 months)) does the source give for `Cc1cc(F)ccc1-c1ccc(/N=N/c2cc(S(=O)(=O)[O-])c3ccccc3c2N)cn1.[Na+]` [Crystal of KUS121 dihydrate, sodium 4-amino-3-[6-(4-fluoro-2-methylphenyl)pyridin-3-ylazo]naphthalene-1-sulfonate dihydrate] here?
**A.** 99.6%

**Q.** And the Related substance (25° C./60% RH (18 months))?
**A.** 0.11%

**Q.** What about the Water content (25° C./60% RH (18 months)) of the same compound?
**A.** 7.4%

**Q.** And the Related substance (40° C./75% RH (6 months))?
**A.** 0.09%

**Q.** And the Content [1]?
**A.** 99.6%

**Q.** And the Water content [1]?
**A.** 7.4%

**Q.** What about the Related substance (Initial) of the same compound?
**A.** 0.07%

**Q.** And the Content (Initial, dihydrate)?
**A.** 99.7%

**Q.** And the Water content (Initial, dihydrate)?
**A.** 7.4%

**Q.** What about the “Storage stability (overall statement)” value (compared with other hydrate crystals, accelerated test condition) of the same compound?
**A.** had better storage stability than other hydrate crystals, and was extremely stable even under accelerated test condition
